Patent US4764533A, “Erythro-1,2-1-pentanones” (Klinge Pharma GmbH, priority 1981, dated 1988)

Legend:
estradiol receptor = biological target: T1, estradiol receptor (Oryctolagus cuniculus, UniProt G1SML6); experiment: Bonding affinity to the estradiol receptor (displacement of (^3 H) estradiol, rabbit uterus cytosol); assay type: binding, rabbit (New Zealand); details: uterus cytosol of female prepubertal rabbits; 18 hours at 40° C.; 2.5×10^-9 M (^3 H) estradiol; read-out: ED50 (concentration of substance displacing 50% (^3 H) estradiol from the estradiol receptor)
T1 construct: The uterus cytosal of female, prepubertal, white rabbits (New Zealand); from tissue; host or cells: uterus cytosol of female prepubertal New Zealand white rabbits
T1 sequence (G1SML6 1-598): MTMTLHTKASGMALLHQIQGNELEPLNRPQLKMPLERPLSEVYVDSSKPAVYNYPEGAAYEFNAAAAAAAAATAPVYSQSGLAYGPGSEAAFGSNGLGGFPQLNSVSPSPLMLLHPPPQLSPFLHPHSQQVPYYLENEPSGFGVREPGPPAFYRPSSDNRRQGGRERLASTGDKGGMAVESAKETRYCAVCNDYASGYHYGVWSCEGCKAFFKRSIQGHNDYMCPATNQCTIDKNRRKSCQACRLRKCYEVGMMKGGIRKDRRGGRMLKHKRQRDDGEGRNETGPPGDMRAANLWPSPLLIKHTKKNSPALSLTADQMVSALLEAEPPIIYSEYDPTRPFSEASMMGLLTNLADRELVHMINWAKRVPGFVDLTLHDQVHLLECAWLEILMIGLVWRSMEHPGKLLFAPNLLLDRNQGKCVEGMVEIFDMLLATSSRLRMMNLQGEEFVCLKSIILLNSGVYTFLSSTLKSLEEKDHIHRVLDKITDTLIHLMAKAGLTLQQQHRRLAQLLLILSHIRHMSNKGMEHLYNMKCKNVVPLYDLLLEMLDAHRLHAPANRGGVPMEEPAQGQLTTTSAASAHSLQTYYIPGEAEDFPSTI
Description: The determination of the binding affinity to the estradiol receptor was effected by means of the rabbit uterus cytosol.
The measurement of the bonding affinity to the estradiol receptor was affected by the method of N. Devleeschouwer, G. Leclercq, A. Danguy and J. C.

[1] = system: mammatumors induced by 7,12-dimethylbenz(a)anthracene; experiment: Mammatumor inhibiting effect (7,12-dimethylbenz(a)anthracene-induced mammatumors); assay type: in vivo, rat (female Spraque-Dawley, Hannover strain); details: 3 mg/kg/day, esophageal tube, 28 days, six times per week; 10 animals; control animals valued at 100%
Protocol: The tumor inhibiting action was measured following a four-week treatment with the active ingredient on female rats, with mammatumors induced previously with 7,12-dimethylbenz(a)anthracene.
The tumor inhibiting effect was determined on the model of mammatumors induced by means of 7,12-dimethylbenz(a)anthracene of female Spraque-Dawley rats (Hannover strain), by the method of M. J. Golder (Europ. J. Cancer 11, 571 (1975)) and D. P. Griswold et al. (Cancer Research 26, 2169 (1966)).
The test substance were taken up in a 0.25% agar solution and administered by esophageal tube over a period of 28 days, six times per week. Twice weekly and on the 28th day of the experiment, the number of animals was ascertained and the tumor surface (mm^2 /animal) of the therapy and control animals measured. At the completion of the experiment, the percentage increase of the average tumor surface of the treated animals was determined, compared with the control animals, which were valued at 100%.

uterus = experiment: Antiuterotropic effect (modified Dorfman test, uterus weight); assay type: in vivo, rat (Spraque-Dawley, sexually mature female); details: 3 mg/kg/day, esophageal tube, 21 days, six times per week; 10 animals
Protocol: The measurement of the antiuterotropic action was effected following a three-week treatment with the active ingredient of sexually mature, female rats. […] The antiuterotropic effect was determined by a modified Dorfman test (R. I. Dorfman, "Methods in Hormone Research II" p. 707, Academic Press, New York-London, 1962), on sexually mature female Spraque-Dawley rats. The test compounds were taken up in a 0.25% aqueous agar suspension and administered by esophageal tube over a period of 21 days, six times per week. Following the completion of the experiment, the uterus weight of animals treated with the active ingredient was related to the uterus weight of the control animals, which received only an empty agar suspension.

Row | SMILES | IC50 (estradiol receptor) | Relative increase of average tumor surface [1] | Weight of uterus compared to control animals (uterus)
1 | CC[C@H](c1ccccc1)[C@@H](C(=O)c1ccc(OCCN(C)C)cc1)c1ccccc1 (relative stereo) [Compound 1, erythro-1-(4'-(2-dimethylaminoethoxy)-phenyl)-2,3-diphenyl-1-pentanone] | 6000 nM | 53% | –
2 | CC[C@H](c1ccccc1)[C@@H](C(=O)c1ccc(OCCN2CCCC2)cc1)c1ccccc1 (relative stereo) [Compound 3, erythro-2,3-diphenyl-1-(4'-(2-pyrrolidin-1-yl-ethoxy)-phenyl)-1-pentanone] | 6000 nM | – | -36%
3 | CC[C@H](c1ccccc1)[C@@H](C(=O)c1ccc(OCCN2CCCCC2)cc1)c1ccccc1 (relative stereo) [Compound 4, erythro-2,3-diphenyl-1-(4'-(2-piperidin-1-yl-ethoxy)-phenyl)-1-pentanone] | 2800 nM | – | -28%
4 | CC[C@H](c1ccccc1)[C@@H](C(=O)c1ccc(OCCN(C)C)cc1)c1ccc(O)cc1 (relative stereo) [Compound 9, erythro-1-(4'-(2-dimethylaminoethoxy)-phenyl)-2-(4'-hydroxyphenyl)-3-phenyl-1-pentanone] | 5.4 nM | 30% | -54%
5 | CC[C@H](c1ccccc1)[C@@H](C(=O)c1ccc(OCCN2CCCC2)cc1)c1ccc(OC)cc1 (relative stereo) [Compound 7, erythro-2-(4'-methoxyphenyl)-3-phenyl-1-(4'-(2-pyrrolidin-1-yl-ethoxy)-phenyl)-1-pentanone] | 1100 nM | – | -43%
6 | CC[C@H](c1ccccc1)[C@@H](C(=O)c1ccc(OCCN2CCCC2)cc1)c1ccc(O)cc1 (relative stereo) [Compound 10, erythro-2-(4'-hydroxyphenyl)-3-phenyl-1-(4'-(2-pyrrolidin-1-yl-ethoxy)-phenyl)-1-pentanone] | 80 nM | – | –
7 | CC[C@H](c1ccccc1)[C@@H](C(=O)c1ccc(OCCN(C)C)cc1)c1ccc(OC)cc1 (relative stereo) [Compound 5, erythro-1-(4'-(2-dimethylaminoethoxy)-phenyl)-2-(4'-methoxyphenyl)-3-phenyl-1-pentanone] | 4500 nM | – | -47%
8 | CC[C@H](c1ccccc1)[C@@H](C(=O)c1ccc(OCCN(CC)CC)cc1)c1ccccc1 (relative stereo) [Compound 2, erythro-1-(4'-(2-diethylaminoethoxy)-phenyl)-2,3-diphenyl-1-pentanone] | 4000 nM | – | -54%
9 | CC[C@H](c1ccccc1)[C@@H](C(=O)c1ccc(OCCN2CCCCC2)cc1)c1ccc(OC)cc1 (relative stereo) [Compound 8, erythro-2-(4'-methoxyphenyl)-3-phenyl-1-(4'-(2-piperidin-1-yl-ethoxy)-phenyl)-1-pentanone] | 1.2 nM | – | –
10 | CC[C@H](c1ccccc1)[C@@H](C(=O)c1ccc(OCCN(CC)CC)cc1)c1ccc(OC)cc1 (relative stereo) [Compound 6, erythro-1-(4'-(2-diethylaminoethoxy)-phenyl)-2-(4'-methoxyphenyl)-3-phenyl-1-pentanone] | 500 nM | – | –
